From patent publication US20240270762A1, “PENICILLIN-BINDING PROTEIN INHIBITORS” (priority 2021, published 2024)
Where two headings read alike, the source gives them in different places.

Experiments:
[1] = tested on: B. thailandensis ATCC 700388; test: microbe, parasite or virus in culture; format: cell-based; conditions: Burkholderia thailandensis, ATCC700388, read-out: Minimum inhibitory concentration (MIC), B. thailandensis ATCC 700388
[2] = target: T1, A. baumannii PBP1a (Acinetobacter baumannii, UniProt A0ABX6CK30); test: Bocillin-FL competition binding via gel filtration, A. baumannii PBP1a
T1 sequence (A0ABX6CK30 1-851): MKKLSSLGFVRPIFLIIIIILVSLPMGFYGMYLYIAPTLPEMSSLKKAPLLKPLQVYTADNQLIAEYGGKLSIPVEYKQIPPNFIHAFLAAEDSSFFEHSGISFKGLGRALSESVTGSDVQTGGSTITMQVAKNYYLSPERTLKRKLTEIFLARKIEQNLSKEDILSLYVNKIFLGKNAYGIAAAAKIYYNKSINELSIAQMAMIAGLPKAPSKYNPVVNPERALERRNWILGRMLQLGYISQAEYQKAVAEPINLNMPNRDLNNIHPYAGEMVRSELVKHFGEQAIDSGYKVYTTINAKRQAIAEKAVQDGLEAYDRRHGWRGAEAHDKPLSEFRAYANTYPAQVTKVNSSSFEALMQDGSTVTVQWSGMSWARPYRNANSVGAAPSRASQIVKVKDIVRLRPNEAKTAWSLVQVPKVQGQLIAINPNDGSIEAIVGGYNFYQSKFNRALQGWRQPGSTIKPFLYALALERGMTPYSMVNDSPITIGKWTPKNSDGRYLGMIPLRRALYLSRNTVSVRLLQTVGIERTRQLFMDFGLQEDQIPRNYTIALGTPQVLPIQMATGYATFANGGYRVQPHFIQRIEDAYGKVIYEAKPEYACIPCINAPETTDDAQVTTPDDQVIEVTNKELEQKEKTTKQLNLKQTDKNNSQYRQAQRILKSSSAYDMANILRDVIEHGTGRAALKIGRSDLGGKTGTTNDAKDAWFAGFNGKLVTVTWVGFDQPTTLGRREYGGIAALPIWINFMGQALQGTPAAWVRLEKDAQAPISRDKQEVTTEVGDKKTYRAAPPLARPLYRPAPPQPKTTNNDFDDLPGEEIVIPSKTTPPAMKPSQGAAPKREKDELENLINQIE
Protocol: (§1) Affinity to A. baumannii PBP1a and PBP2 was assessed a competitive equilibrium binding assay using Bocillin-FL as the reporter molecule. Enzyme was pre-incubated with increasing concentrations of inhibitors, prior to addition of Bocillin and further incubation for 15 minutes. PBP bound with Bocillin-FL was separated by gel filtration using 96-well Zeba Spin size exclusion plates, and the fluorescence measured. The inhibitor affinity (reported as the EC50) was determined by plotting the fraction of PBP bound with Bocillin-FL at each inhibitor concentration against the inhibitor concentration, and fitting the data to the following equation:
(§2) [formula] • where y is the fraction bound at a given inhibitor concentration, ymin is the fraction bound when the enzyme is completely inactivated, ymax is the maximum (uninhibited) fraction bound, n is the Hill coefficient, and x is the inhibitor concentration.

[3] = target: A. baumannii PBP2 (Acinetobacter baumannii, UniProt D0C8Z9); test: Bocillin-FL competition binding via gel filtration, A. baumannii PBP2
A. baumannii PBP2, sequence (D0C8Z9 whole entry): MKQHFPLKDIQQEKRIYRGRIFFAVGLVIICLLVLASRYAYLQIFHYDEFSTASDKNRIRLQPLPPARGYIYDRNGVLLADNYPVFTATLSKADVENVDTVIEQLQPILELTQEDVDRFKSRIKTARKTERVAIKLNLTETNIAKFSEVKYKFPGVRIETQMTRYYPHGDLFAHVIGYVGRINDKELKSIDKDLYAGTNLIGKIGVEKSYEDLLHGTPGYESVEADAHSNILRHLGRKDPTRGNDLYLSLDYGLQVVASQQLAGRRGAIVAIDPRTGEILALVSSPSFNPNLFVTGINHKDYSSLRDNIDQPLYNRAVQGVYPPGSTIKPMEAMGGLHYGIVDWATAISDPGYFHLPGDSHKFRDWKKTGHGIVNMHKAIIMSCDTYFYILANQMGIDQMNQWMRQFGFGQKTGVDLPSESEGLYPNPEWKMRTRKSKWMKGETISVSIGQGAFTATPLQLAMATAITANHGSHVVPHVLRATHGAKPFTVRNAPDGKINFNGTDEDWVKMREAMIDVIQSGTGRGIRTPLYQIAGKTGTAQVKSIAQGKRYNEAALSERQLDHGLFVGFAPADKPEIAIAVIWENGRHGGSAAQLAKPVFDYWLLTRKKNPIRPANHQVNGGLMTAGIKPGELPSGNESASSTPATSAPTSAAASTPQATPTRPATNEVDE
Protocol: as §1, §2

[4] = tested on: B. pseudomallei Bp82; test: microbe, parasite or virus in culture; format: cell-based; conditions: Burkholderia pseudomallei, BP82, read-out: Minimum inhibitory concentration, B. pseudomallei Bp82
[5] = tested on: B. humptydooensis ATCC BAA-2767; test: microbe, parasite or virus in culture; format: cell-based; conditions: Burkholderia humptydooensis, ATCCBAA2767, read-out: Minimum inhibitory concentration (MIC), B. humptydooensis ATCC BAA-2767
[6] = competition binding assay using Bocillin-FL via gel filtration, read-out: A. baumannii PBP1a Potency

| Structure (SMILES) | MIC [1] | EC50 [2] | EC50 [3] | MIC [4] | MIC [5] | EC50 [2, 6] |
| --- | --- | --- | --- | --- | --- | --- |
| O=C(O)c1c(F)ccc2c1OB(O)[C@@H](NC(=O)C(NC(=O)N1CCN(C3CCN(Cc4cccc(O)c4)CC3)C1=O)c1cc(F)c(O)c(O)c1Cl)C2 (stereo partly drawn) [Example 605, (3R)-3-(2-(2-chloro-5-fluoro-3,4-dihydroxyphenyl)-2-(3-(1-(3-hydroxybenzyl)piperidin-4-yl)-2-oxoimidazolidine-1-carboxamido)acetamido)-7-fluoro-2-hydroxy-3,4-dihydro-2H-benzo[e][1,2]oxaborinine-8-carboxylic acid] | < 1 µg/mL | < 10 µM | 10 to 50 µM | < 1 µg/mL | < 1 µg/mL | – |
| O=C(O)c1c(F)ccc2c1OB(O)[C@@H](NC(=O)C(NC(=O)N1CCN(C3CCN(Cc4ccc(O)c(F)c4)CC3)C1=O)c1cc(F)c(O)c(O)c1Cl)C2 (single isomer, unassigned) [Example 610] | < 1 µg/mL | – | 10 to 50 µM | < 1 µg/mL | < 1 µg/mL | < 10 µM |
| O=C(O)c1c(F)ccc2c1OB(O)[C@@H](NC(=O)C(NC(=O)N1CCN(C3CCN(Cc4cc(O)cc(O)c4)CC3)C1=O)c1cc(F)c(O)c(O)c1Cl)C2 (single isomer, unassigned) [Example 612] | < 1 µg/mL | – | 10 to 50 µM | < 1 µg/mL | < 1 µg/mL | < 10 µM |
